Values of other authors in patent US20100323028A1, “METHOD AND COMPOSITION FOR TREATING PULMONARY HEMORRHAGE” (JBS UNITED, INC., priority 2007, published 2010).

Test system: horses
Conditions: alone or in combination not able to totally eliminate EIPH

In the case of `NS(=O)(=O)c1cc(C(=O)O)c(NCc2ccco2)cc1Cl` [furosemide], the “Effect on EIPH” value is given as “effective in reducing EIPH”.
